According to US8278345B2, “Inhibitors of glutaminyl cyclase” (Probiodrug AG, priority 2006, dated 2012):

Each molecule was assayed against hQC (Homo sapiens, UniProt Q16769) (assay: Inhibitor assay for glutaminyl cyclase activity (fluorometric, H-Gln-βNA / H-Gln-AMC)). Details: compound from preparative synthesis, purified.
Sequence of hQC (Q16769 29-361): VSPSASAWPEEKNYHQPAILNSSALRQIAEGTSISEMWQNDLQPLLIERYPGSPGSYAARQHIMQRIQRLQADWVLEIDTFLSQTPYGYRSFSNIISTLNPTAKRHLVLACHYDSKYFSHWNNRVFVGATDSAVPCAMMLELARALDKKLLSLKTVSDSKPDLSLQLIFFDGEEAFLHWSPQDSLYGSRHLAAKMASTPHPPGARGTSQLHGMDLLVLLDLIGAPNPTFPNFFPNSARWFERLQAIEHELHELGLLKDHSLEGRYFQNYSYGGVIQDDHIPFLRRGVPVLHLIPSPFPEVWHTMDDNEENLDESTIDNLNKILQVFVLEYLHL
Type: biochemical
Method in brief: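 Ki values came from fitting progress curves to a competitive inhibition model; rapid screens used 4 mM inhibitor with substrate at KM. QC activity was read at 30 °C via auxiliary pyroglutamyl aminopeptidase releasing βNA (0.2 mM H-Gln-βNA, 0.2 M Tris pH 8.0, 20 mM EDTA) or AMC (0.05 M Tris pH 8.0, 5 mM EDTA).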
With O=C(C1=C(O)C(=O)N(c2ccc3[nH]cnc3c2)C1c1cccc(F)c1F)c1ccccc1 (stereo not drawn) [Compound 466, 1-(1H-benzo[d]imidazol-5-yl)-4-benzoyl-5-(2,3-difluorophenyl)-3-hydroxy-1H-pyrrol-2(5H)-one] the Ki was 0.00331 µM.

Same assay, conditions: compound from preparative synthesis, purified; read-out: IC50 hQC
Molecule O=C1C(O)=C(c2ccccc2)C(c2cccc(O)c2)N1CCCn1ccnc1 (stereo not drawn) [Compound 112, 3-Hydroxy-5-(3-hydroxy-phenyl)-1-(3-imidazol-1-yl-propyl)-4-phenyl-1,5-dihydro-pyrrol-2-one] has an IC50 of 1.96 µM.
With O=C1C(O)=C(c2c[nH]c3ccccc23)C(c2ccccc2F)N1CCCn1ccnc1 (stereo not drawn) [Compound 144, 5-(2-Fluoro-phenyl)-3-hydroxy-1-(3-imidazol-1-yl-propyl)-4-(1H-indol-3-yl)-1,5-dihydro-pyrrol-2-one] the IC50 was 1.04 µM.
With CCCCCC1=C(O)C(=O)N(CCCn2ccnc2)C1c1cccc(O)c1 (stereo not drawn) [Compound 219, 3-Hydroxy-5-(3-hydroxy-phenyl)-1-(3-imidazol-1-yl-propyl)-4-pentyl-1,5-dihydro-pyrrol-2-one] the IC50 was 0.698 µM.
COc1ccc(C2C(c3ccc(O)cc3)=C(O)C(=O)N2CCCn2ccnc2)cc1 (stereo not drawn) [Compound 156, 3-Hydroxy-4-(4-hydroxy-phenyl)-1-(3-imidazol-1-yl-propyl)-5-(4-methoxy-phenyl)-1,5-dihydro-pyrrol-2-one] gave an IC50 of 0.088 µM.

Same assay, conditions: read-out: IC50
O=C(C1=C(O)C(=O)N(c2ccc3[nH]cnc3c2)C1c1cccc(F)c1F)c1ccccc1 (stereo not drawn) [Compound 466, 1-(1H-benzo[d]imidazol-5-yl)-4-benzoyl-5-(2,3-difluorophenyl)-3-hydroxy-1H-pyrrol-2(5H)-one] was tested, and the IC50 was 0.0398 µM.
CCCC(=O)C1=C(O)C(=O)N(c2ccc3[nH]cnc3c2)C1c1ccsc1 (stereo not drawn) [Compound 424, 1-(1H-Benzoimidazol-5-yl)-4-butyryl-3-hydroxy-5-thiophen-3-yl-1,5-dihydro-pyrrol-2-one] was tested, and the IC50 was 0.85 µM.
COc1ccc(C2C(c3cccc(O)c3)=C(O)C(=O)N2CCCn2ccnc2)cc1 (stereo not drawn) [Compound 13, 3-Hydroxy-4-(3-hydroxy-phenyl)-1-(3-imidazol-1-yl-propyl)-5-(4-methoxy-phenyl)-1,5-dihydro-pyrrol-2-one] showed an IC50 of 2.2 µM.
For CCC1=C(O)C(=O)N(c2ccc3[nH]cnc3c2)C1c1cc(Cl)ccc1O (stereo not drawn) [Compound 276, 1-(1H-Benzoimidazol-5-yl)-5-(5-chloro-2-hydroxy-phenyl)-4-ethyl-3-hydroxy-1,5-dihydro-pyrrol-2-one], the IC50 was 4.36 µM.
CCCCCC1=C(O)C(=O)N(CCCn2ccnc2)C1c1ncc[nH]1 (stereo not drawn) [Compound 205, 3-Hydroxy-5-(1H-imidazol-2-yl)-1-(3-imidazol-1-yl-propyl)-4-pentyl-1,5-dihydro-pyrrol-2-one] showed an IC50 of 2.2 µM.
With CC1=C(O)C(=O)N(CCCn2ccnc2)C1/C=C/c1ccccc1 (stereo not drawn) [Compound 33, 3-Hydroxy-1-(3-imidazol-1-yl-propyl)-4-methyl-5-(styryl)-1,5-dihydro-pyrrol-2-one] the IC50 was 3.1 µM.
With CC1=C(O)C(=O)N(c2ccc3[nH]cnc3c2)C1c1cc(F)cc(F)c1F (stereo not drawn) [Compound 407, 1-(1H-Benzoimidazol-5-yl)-3-hydroxy-4-methyl-5-(2,3,5-trifluoro-phenyl)-1,5-dihydro-pyrrol-2-one] the IC50 was 0.22 µM.
For CC(=O)C1=C(O)C(=O)N(c2ccc3[nH]cnc3c2)C1c1cccc(C)c1 (stereo not drawn) [Compound 283, 4-Acetyl-1-(1H-benzoimidazol-5-yl)-3-hydroxy-5-m-tolyl-1,5-dihydro-pyrrol-2-one], the IC50 was 0.4 µM.
Molecule CC(C)C1=C(O)C(=O)N(CCCn2ccnc2)C1Cc1ccccc1 (stereo not drawn) [Compound 68, 5-Benzyl-3-hydroxy-1-(3-imidazol-1-yl-propyl)-4-isopropyl-1,5-dihydro-pyrrol-2-one] has an IC50 of 0.04 µM.
With CCC1=C(O)C(=O)N(CCCn2ccnc2)C1c1cccs1 (stereo not drawn) [Compound 245, 4-Ethyl-3-hydroxy-1-(3-imidazol-1-yl-propyl)-5-thiophen-2-yl-1,5-dihydro-pyrrol-2-one] the IC50 was 0.04 µM.
Work on O=C1C(O)=C(c2ccc(O)cc2)C(c2coc3ccccc3c2=O)N1c1ccc2[nH]cnc2c1 (stereo not drawn) [Compound 286, 1-(1H-Benzoimidazol-5-yl)-3-hydroxy-4-(4-hydroxy-phenyl)-5-(4-oxo-4H-chromen-3-yl)-1,5-dihydro-pyrrol-2-one] yielded an IC50 of 3.55 µM.
Molecule CCC1=C(O)C(=O)N(CCCn2ccnc2)C1C(F)(F)F (stereo not drawn) [Compound 240, 4-Ethyl-3-hydroxy-1-(3-imidazol-1-yl-propyl)-5-trifluoromethyl-1,5-dihydro-pyrrol-2-one] has an IC50 of 0.04 µM.
CCC/C=C/C1C(c2ccccc2)=C(O)C(=O)N1CCCn1ccnc1 (stereo not drawn) [Compound 78, 3-Hydroxy-1-(3-imidazol-1-yl-propyl)-5-(pent-1-enyl)-4-phenyl-1,5-dihydro-pyrrol-2-one] gave an IC50 of 0.04 µM.
With CC(C)CC(=O)C1=C(O)C(=O)N(c2ccc3[nH]cnc3c2)C1C1CCOC1 (stereo not drawn) [Compound 291, 1-(1H-Benzoimidazol-5-yl)-3-hydroxy-4-(3-methyl-butyryl)-5-(tetrahydro-furan-3-yl)-1,5-dihydro-pyrrol-2-one] the IC50 was 0.49 µM.
CC(C)CC(=O)C1=C(O)C(=O)N(c2ccc3[nH]cnc3c2)C1c1cn(C)c2ccccc12 (stereo not drawn) [Compound 278, 1-(1H-Benzoimidazol-5-yl)-3-hydroxy-4-(3-methyl-butyryl)-5-(1-methyl-1H-indol-3-yl)-1,5-dihydro-pyrrol-2-one] showed an IC50 of 5.35 µM.
For O=C1C(O)=C(c2c[nH]c3ccccc23)C(c2c[nH]c3ccccc23)N1CCCn1ccnc1 (stereo not drawn) [Compound 132, 3-Hydroxy-1-(3-imidazol-1-yl-propyl)-4,5-bis-(1H-indol-3-yl)-1,5-dihydro-pyrrol-2-one], the IC50 was 0.4 µM.
With O=C1C(O)=C(c2c[nH]c3ccccc23)C(c2ccc3nsnc3c2)N1c1ccc2[nH]cnc2c1 (stereo not drawn) [Compound 457] the IC50 was 0.004 µM.
With Cc1ccc(C2C(c3cccc(O)c3)=C(O)C(=O)N2CCCn2ccnc2)cc1 (stereo not drawn) [Compound 5, 3-Hydroxy-4-(3-hydroxy-phenyl)-1-(3-imidazol-1-yl-propyl)-5-p-tolyl-1,5-dihydro-pyrrol-2-one] the IC50 was 2.2 µM.
Molecule O=C(C1=C(O)C(=O)N(c2ccc3[nH]cnc3c2)C1c1ccc(CO)o1)c1ccncc1 (stereo not drawn) [Compound 272, 1-(1H-Benzoimidazol-5-yl)-3-hydroxy-5-(5-hydroxymethyl-furan-2-yl)-4-(pyridine-4-carbonyl)-1,5-dihydro-pyrrol-2-one] has an IC50 of 3.73 µM.
In the case of O=C1C(O)=C(c2ccccc2)C(c2cccc(O)c2)N1CCCn1ccnc1 (stereo not drawn) [Compound 112, 3-Hydroxy-5-(3-hydroxy-phenyl)-1-(3-imidazol-1-yl-propyl)-4-phenyl-1,5-dihydro-pyrrol-2-one], the IC50 is reported as 0.4 µM.
CCCCCC1=C(O)C(=O)N(CCCn2ccnc2)C1c1ccccn1 (stereo not drawn) [Compound 208, 3-Hydroxy-1-(3-imidazol-1-yl-propyl)-4-pentyl-5-pyridin-2-yl-1,5-dihydro-pyrrol-2-one] gave an IC50 of 0.4 µM.
In the case of O=C1C(O)=C(c2c[nH]c3ccccc23)C(c2ccc(CO)o2)N1c1ccc2[nH]cnc2c1 (stereo not drawn) [Compound 409, 1-(1H-Benzoimidazol-5-yl)-3-hydroxy-5-(5-hydroxymethyl-furan-2-yl)-4-(1H-indol-3-yl)-1,5-dihydro-pyrrol-2-one], the IC50 is reported as 0.67 µM.
Molecule Cn1cc(C2C(c3c[nH]c4ccccc34)=C(O)C(=O)N2c2ccc3[nH]cnc3c2)c2ccccc21 (stereo not drawn) [Compound 329, 1-(1H-Benzoimidazol-5-yl)-3-hydroxy-4-(1H-indol-3-yl)-5-(1-methyl-1H-indol-3-yl)-1,5-dihydro-pyrrol-2-one] has an IC50 of 6.25 µM.
For CC(C)C1=C(O)C(=O)N(CCCn2ccnc2)C1c1ccncc1 (stereo not drawn) [Compound 70, 3-Hydroxy-1-(3-imidazol-1-yl-propyl)-4-isopropyl-5-pyridin-4-yl-1,5-dihydro-pyrrol-2-one], the IC50 was 4.9 µM.
Molecule CCC1=C(O)C(=O)N(CCCn2ccnc2)C1c1c[nH]c2ccccc12 (stereo not drawn) [Compound 241, 4-Ethyl-3-hydroxy-1-(3-imidazol-1-yl-propyl)-5-(1H-indol-3-yl)-1,5-dihydro-pyrrol-2-one] has an IC50 of 0.04 µM.
Work on O=C1C(O)=C(c2ccccc2)C(C(F)(F)F)N1CCCn1ccnc1 (stereo not drawn) [Compound 96, 3-Hydroxy-1-(3-imidazol-1-yl-propyl)-4-phenyl-5-trifluoromethyl-1,5-dihydro-pyrrol-2-one] yielded an IC50 of 0.4 µM.
With O=C1C(O)=C(c2ccccc2)C(C(O)CO)N1CCCn1ccnc1 (stereo not drawn) [Compound 82, 5-(1,2-Dihydroxy-ethyl)-3-hydroxy-1-(3-imidazol-1-yl-propyl)-4-phenyl-1,5-dihydro-pyrrol-2-one] the IC50 was 3.1 µM.
O=C(C1=C(O)C(=O)N(c2ccc3[nH]cnc3c2)C1c1ccnc2ccccc12)C1CC1 (stereo not drawn) [Compound 296, 1-(1H-Benzoimidazol-5-yl)-4-cyclopropanecarbonyl-3-hydroxy-5-quinolin-4-yl-1,5-dihydro-pyrrol-2-one] showed an IC50 of 3 µM.
Work on CCC1C(c2c[nH]c3ccccc23)=C(O)C(=O)N1CCCn1ccnc1 (stereo not drawn) [Compound 142, 5-Ethyl-3-hydroxy-1-(3-imidazol-1-yl-propyl)-4-(1H-indol-3-yl)-1,5-dihydro-pyrrol-2-one] yielded an IC50 of 0.4 µM.
Molecule CCCCC1C(c2c[nH]c3ccccc23)=C(O)C(=O)N1CCCn1ccnc1 (stereo not drawn) [Compound 141, 5-Butyl-3-hydroxy-1-(3-imidazol-1-yl-propyl)-4-(1H-indol-3-yl)-1,5-dihydro-pyrrol-2-one] has an IC50 of 0.4 µM.
Molecule O=C1C(O)=C(c2c[nH]c3ccccc23)C(c2ccccc2F)N1CCCn1ccnc1 (stereo not drawn) [Compound 144, 5-(2-Fluoro-phenyl)-3-hydroxy-1-(3-imidazol-1-yl-propyl)-4-(1H-indol-3-yl)-1,5-dihydro-pyrrol-2-one] has an IC50 of 0.04 µM.
CCCCCC1=C(O)C(=O)N(CCCn2ccnc2)C1c1cccc(O)c1 (stereo not drawn) [Compound 219, 3-Hydroxy-5-(3-hydroxy-phenyl)-1-(3-imidazol-1-yl-propyl)-4-pentyl-1,5-dihydro-pyrrol-2-one] gave an IC50 of 0.04 µM.
CCC1=C(O)C(=O)N(c2ccc3[nH]cnc3c2)C1c1ccc(N2CCCC2)cc1 (stereo not drawn) [Compound 406, 1-(1H-Benzoimidazol-5-yl)-4-ethyl-3-hydroxy-5-(4-pyrrolidin-1-yl-phenyl)-1,5-dihydro-pyrrol-2-one] gave an IC50 of 8.32 µM.
Molecule COc1ccc(C2C(c3ccc(O)cc3)=C(O)C(=O)N2CCCn2ccnc2)cc1 (stereo not drawn) [Compound 156, 3-Hydroxy-4-(4-hydroxy-phenyl)-1-(3-imidazol-1-yl-propyl)-5-(4-methoxy-phenyl)-1,5-dihydro-pyrrol-2-one] has an IC50 of 0.04 µM.
CC1=C(O)C(=O)N(CCCn2ccnc2)C1c1ccncc1 (stereo not drawn) [Compound 44, 3-Hydroxy-1-(3-imidazol-1-yl-propyl)-4-methyl-5-pyridin-4-yl-1,5-dihydro-pyrrol-2-one] showed an IC50 of 3.1 µM.
CCCCCC(=O)C1=C(O)C(=O)N(c2ccc3[nH]cnc3c2)C1c1ccc(C)o1 (stereo not drawn) [Compound 258, 1-(1H-Benzoimidazol-5-yl)-4-hexanoyl-3-hydroxy-5-(5-methyl-furan-2-yl)-1,5-dihydro-pyrrol-2-one] was tested, and the IC50 was 2.56 µM.
O=C1C(O)=C(c2c[nH]c3ccccc23)C(c2cccs2)N1CCCn1ccnc1 (stereo not drawn) [Compound 137, 3-Hydroxy-1-(3-imidazol-1-yl-propyl)-4-(1H-indol-3-yl)-5-thiophen-2-yl-1,5-dihydro-pyrrol-2-one] gave an IC50 of 0.4 µM.
